Test results published in patent US20040110678A1, “Novel drug delivery system” (priority 2001, published 2004).
In brackets after ≈: the same amount, converted by molar mass. Like-named read-outs stand apart in the source and are kept apart here. Where a SMILES comes first, the peptide text is derived from it. The star is where a group is joined. Palmitoyl = CCCCCCCCCCCCCCCC(=O)*; Myristoyl = CCCCCCCCCCCCCC(=O)*

Key:
[1] = system: Escherichia coli 0111-NCTC 8007; assay type: cell-based; conditions: for Minimum Inhibitory Concentration E. coli: NCTC 8007
Description: (§1) Staphylococcus aureus NCTC Oxford and Escherichia coli 0111-NCTC 8007 strains were obtained from the National Collection of Type Cultures, Colindale, UK MIC for each sample was determined in 96 well plates. The above sample in PBS was serially diluted in microtitre wells with media, RPMI-1640 to give concentrations from 2 mg/ml to 0.00375 mg/ml or from 1 mg/ml to 0.00375 mg/ml or from 0.5 mg/ml to 0.00375 mg/ml of RH01 in a final volume of 100 μl. Bacteria were incubated at 37° C. overnight in standard media to give approximately 10^8 bacteria/ml and 10 μl of this was added to each well. The plates were incubated at 37° C. overnight, and bacterial growth determined by formation of a pellet.
(§2) Staphylococcus aureus NCTC Oxford and Escherichia coli 0111-NCTC 8007 strains were obtained from the National Collection of Type Cultures, Colindale, UK. The MIC for each sample was determined in 96 well plates. The RH01 in PBS (see above) was serially diluted in microtitre wells with media (RPMI-1640) to give final concentrations of 2 mg/ml to 0.00375 mg/ml of RH01 in a final volume of 100 μl. Bacteria were incubated at 37° C. overnight in standard media to give approximately 10^8 bacteria/ml and 10 μl of this was added to each well. The plates were incubated at 37° C. overnight, and bacterial growth determined by formation of a pellet.

[2] = system: Staphylococcus aureus NCTC Oxford; assay: microbe, parasite or virus in culture; assay type: cell-based; conditions: for MIC: read-out: MIC S. aureus
Description: as §1, §2

[3] = target: T1, BSAff (Bos taurus, UniProt P02769); assay: Diazepam binding to fatty acid free bovine serum albumin by induced CD; conditions: fatty acid 0M/M
T1 construct: Bovine serum albumin essentially fatty acid free; purchased Sigma-Aldrich Company Ltd catalogue number not given; lot 100K7415
T1 sequence (P02769 25-607): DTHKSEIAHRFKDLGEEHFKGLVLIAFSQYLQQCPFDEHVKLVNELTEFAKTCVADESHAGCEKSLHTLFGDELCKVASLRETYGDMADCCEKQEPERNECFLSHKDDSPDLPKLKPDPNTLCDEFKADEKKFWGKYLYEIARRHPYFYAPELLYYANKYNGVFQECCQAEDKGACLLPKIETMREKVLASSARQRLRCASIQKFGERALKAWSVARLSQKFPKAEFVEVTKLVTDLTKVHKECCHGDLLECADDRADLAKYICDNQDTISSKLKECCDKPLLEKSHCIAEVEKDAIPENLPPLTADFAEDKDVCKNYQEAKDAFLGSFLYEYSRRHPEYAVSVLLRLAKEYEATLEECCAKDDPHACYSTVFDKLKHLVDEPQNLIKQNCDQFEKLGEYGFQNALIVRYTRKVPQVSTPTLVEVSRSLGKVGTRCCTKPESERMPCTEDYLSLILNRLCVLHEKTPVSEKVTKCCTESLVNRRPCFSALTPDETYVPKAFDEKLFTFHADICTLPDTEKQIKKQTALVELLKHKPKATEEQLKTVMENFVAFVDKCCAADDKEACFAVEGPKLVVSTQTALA
Description: BSAff (1.914 mg) was dissolved in distilled water (3.19 ml) to give concentration of 0.6 mg/ml. Diazepam (0.422 mg) was dissolved by sonication for 30 mins in distilled water (3.297 ml) to give a concentration of 0.128 mg/ml. BSAff solution (1.05 ml) was transferred to 2 cm cell and CD spectra was recorded. Diazepam (22 μl) was added to the BSAff in the 2 cm cell and the mixture was gently mixed by rotating the cell several times. The CD spectrum of the mixture was then recorded. The cell was then washed thoroughly with distilled water and ethanol. Distilled water (1.10 ml) was then placed in the 2 cm cell and CD spectrum recorded. CD parameters are as in example 1.

[4] = target: T2, HSAff (Homo sapiens, UniProt P02768); assay: Displacement of albumin-bound diazepam from HSAff-diazepam (1:1) monitored by induced CD; assay type: binding
T2 construct: purchased Sigma-Aldrich Company Ltd catalogue number not given; lot 32H9300
T2 sequence (P02768 25-609): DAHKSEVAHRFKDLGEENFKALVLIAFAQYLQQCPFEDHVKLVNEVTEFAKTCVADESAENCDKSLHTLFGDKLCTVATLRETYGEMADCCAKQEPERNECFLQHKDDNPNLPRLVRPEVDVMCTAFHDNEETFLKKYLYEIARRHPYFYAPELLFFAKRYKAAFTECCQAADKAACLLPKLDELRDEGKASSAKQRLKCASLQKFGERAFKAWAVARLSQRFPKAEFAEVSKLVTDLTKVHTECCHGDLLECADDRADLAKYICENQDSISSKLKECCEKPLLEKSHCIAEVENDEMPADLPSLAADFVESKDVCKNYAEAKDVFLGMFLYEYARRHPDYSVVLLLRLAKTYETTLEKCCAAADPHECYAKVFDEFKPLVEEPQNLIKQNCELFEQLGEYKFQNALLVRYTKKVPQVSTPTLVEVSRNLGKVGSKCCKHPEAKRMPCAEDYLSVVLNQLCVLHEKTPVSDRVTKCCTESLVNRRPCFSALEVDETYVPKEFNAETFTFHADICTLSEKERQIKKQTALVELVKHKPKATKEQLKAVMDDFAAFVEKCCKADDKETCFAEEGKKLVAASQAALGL
Description: Diazepam (0.088 mg) was dissolved by sonication for 30 mins in distilled water (0.687 ml). Sodium palmitate (0.872 mg) was dissolved in water pH 8.8 (0.698 ml) by sonicating for 5 mins. […] The CD spectrum of the mixture was then recorded. Sodium palmitate (51 μl) was added to the cell and the mixture was gently mixed by rotating the cell several times. The CD spectrum of the mixture was recorded. This process was repeated twice over, each time the CD spectrum was recorded. The cell was then washed thoroughly with distilled water and ethanol. Distilled water (2.705 ml) was then placed in the 5 cm cell and CD spectrum recorded.
CD spectra were recorded with nitrogen flushed JASCO spectropolarimeter J600 using 4 s time constant, 10 nm/min scan speed and a spectral bandwidth of 2 nm. The induced CD spectra of bound diazepam were obtained by subtracting the spectrum of albumin from that of the HSA-diazepam mixture. The spectra were reported as Δε=εL−εR(M^−1cm^−1).
Diazepam and medium chain fatty acids are known to bind to albumin site II as discussed by T Peters, All about albumin, Academic Press, 1999, p116. The fatty acid molecules are devoid of any CD signal. […] In here, diazepam is used as a marker to show the binding of fatty acids and fatty acid containing molecules to albumin. […] Palmitic acid binds to at least five long chain fatty acid binding sites of which one is closely located to albumin site II as reported by Curry et al. (1998, Nature Structural Biology, 5, 827-835).

[5] = system: Pronase®; assay type: in vitro ADME
Description: HSA fatty acid free (2.359 mg) was dissolved in distilled water (3.93 ml) to give concentration 0.60 mg/ml. Pronase® (0.363 mg) was dissolved in distilled water (0.605 ml) to give a concentration 0.60 mg/ml.
HSA fatty acid free solution (0.2 ml) was placed in a 0.05 cm cell and the circular dichroism spectrum (CD) was recorded. The cell was then thoroughly washed with distilled water and ethanol. HSA fatty acid free solution (2.7 ml) was placed in a glass vial. Pronase® solution (27 μl) was added to HSA fatty acid free solution in the glass vial. The mixture was mixed gently and 200 μl was transferred to 0.05 cm cell. The cell was then incubated at 37° C. and CD spectra recorded at various incubation time intervals.
CD spectra were recorded with nitrogen flushed JASCO spectropolarimeters J600 4s time constant, 10 nm/min scan speed and a spectral bandwidth of 2 nm. […]
HSA fatty acid free solution (275 μl) was placed in a glass vial. […] Mixture (200 μl) was transferred into a 0.05 cm cell and CD spectrum was recorded. […] The cell was then incubated at 37° C. and CD spectra recorded at various incubation time intervals.
HSA with fatty acid solution (275 μl) was placed in a glass vial. […] Mixture (200 μl) was transferred into a 0.05 cm cell and CD spectrum was recorded. […] The cell was then incubated at 37° C. and CD spectra recorded at various incubation time intervals. […]

[6] = Staphylococcus aureus, 0.5 h, Table 2, peptide incubation time in mixture 30 min 25° C.
[7] = Staphylococcus aureus, Table 2, peptide incubation time in mixture 2 h 37° C.

CCCCCCCCCCCCCCCC(=O)NCCCC[C@H](NC(=O)[C@H](CC(N)=O)NC(=O)[C@H](CCCCN)NC(=O)[C@H](CCCCNC(=O)CCCCCCCCCCCCCCC)NC(=O)[C@H](CCCNC(=N)N)NC(=O)[C@H](CC(C)C)NC(=O)[C@H](C)NC(=O)CNC(=O)[C@H](CCCCN)NC(=O)[C@H](CCCNC(=N)N)NC(=O)[C@H](C)NC(=O)[C@H](Cc1ccccc1)NC(=O)[C@H](CCCCN)NC(=O)CCCCCCCCCCCCCCC)C(N)=O [RH03] (Palmitoyl-KFARKGALRK(Palmitoyl)KNK(Palmitoyl)-NH2)
Minimum Inhibitory Concentration E. coli [1]: 441 µM | Minimum Inhibitory Concentration S. aureus ([2]; NCTC Oxford): 55 µM

BSAff: bovine serum albumin essentially fatty acid free and essentially globulin-free
induced CD of diazepam bound to BSAff, in words [3]: characteristic induced CD

CCCCCCCCCCCCCCCC(=O)NCCCC[C@H](NC(=O)[C@H](CC(N)=O)NC(=O)[C@H](CCCCN)NC(=O)[C@H](CCC(N)=O)NC(=O)[C@H](CCCNC(=N)N)NC(=O)[C@H](CC(C)C)NC(=O)[C@H](C)NC(=O)CNC(=O)[C@H](CCCCN)NC(=O)[C@H](CCCNC(=N)N)NC(=O)[C@H](C)NC(=O)[C@H](Cc1ccccc1)NC(=O)[C@H](CCCCN)NC(=O)CCCCCCCCCCCCCCC)C(N)=O [RH02] (Palmitoyl-KFARKGALRQKNK(Palmitoyl)-NH2)
Minimum Inhibitory Concentration E. coli [1]: 62 µM | Minimum Inhibitory Concentration S. aureus ([2]; NCTC Oxford): 3.7 µM

CCCCCCCC(=O)O [CA, caprylic acid, reference compound]
MIC [2, 6]: > 800 µM | MIC [2, 7]: > 800 µM

CC(C)C[C@H](NC(=O)[C@H](C)NC(=O)CNC(=O)[C@H](CCCCN)NC(=O)[C@H](CCCNC(=N)N)NC(=O)[C@H](CCCCN)NC(=O)[C@H](Cc1ccccc1)NC(=O)[C@@H](N)CCCCN)C(=O)N[C@@H](CCCNC(=N)N)C(=O)N[C@@H](CCC(N)=O)C(=O)N[C@@H](CCCCN)C(=O)N[C@@H](CC(N)=O)C(=O)N[C@@H](CCCCN)C(N)=O [RH04]
Minimum Inhibitory Concentration E. coli [1]: 620 µM | Minimum Inhibitory Concentration S. aureus ([2]; NCTC Oxford): 145 µM

CCCCCCCCCCCCCCCC(=O)O [PA, palmitic acid]
MIC [2, 6]: > 800 µM | MIC [2, 7]: > 800 µM | percentage of diazepam induced CD ([4]; 1 molar equivalent added to the mixture HSAff-diazepam (1:1)): 88.5% | percentage of diazepam induced CD ([4]; 2 molar equivalents added to the mixture HSAff-diazepam (1:1)): 60.0% | percentage of diazepam induced CD ([4]; 3 molar equivalents added to the mixture HSAff-diazepam (1:1)): 18.6%

CCCCCCCCCCCCCC(=O)N[C@@H](Cc1ccccc1)C(=O)N[C@@H](C)C(=O)N[C@@H](CCCNC(=N)N)C(=O)N[C@@H](CCCCN)C(=O)NCC(=O)N[C@@H](C)C(=O)N[C@@H](CC(C)C)C(=O)N[C@@H](CCCNC(=N)N)C(=O)N[C@@H](CCC(N)=O)C(=O)O [RH01] (Myristoyl-FARKGALRQ-OH)
Minimum Inhibitory Concentration E. coli [1]: 48 µM | potency with HSAff compared to the lipopeptide alone or with HSAfa ([1]; from Table 1): twice as potent | stability towards Pronase degradation, comparison in words [5]: stabilises fat free DBax HSA like HSAff | MIC ([2]; NCTC Oxford, 2 h): 24 µM (≈ 30.2 µg/mL) | MIC ([2]; NCTC Oxford): 12 µM (≈ 15.1 µg/mL) | potency with HSAff compared to the lipopeptide alone or with HSAfa ([2]; from Table 1): twice as potent | displacement of diazepam (DZ) from HSAff-DZ (1:1) ([4]; added at different molar ratios, data not shown): decreased induced CD
